From patent publication US20050148560A1, “Prevention and treatment of hypertensive heart diseases by the selective estrogens 8beta-vinyl-estra-1,3,5(10)-trien-3,17beta-diol and 17beta-fluor-9alpha-vinyl-estra-1,3,5(10)-trien-3,16alpha-diol” (priority 2003, published 2005)
Entries after “also recorded” stand apart in the source; their conditions may differ.

Legend:
[1] = molecular target: T1, rat prostate estrogen receptor (ERβ containing cytosol) (Rattus norvegicus, UniProt Q62986); test: Estrogen receptor binding, competition with [3H]-estradiol, rat prostate cytosol (compared with rat uterus cytosol); conditions: rat prostate cytosol (ERβ) vs rat uterus cytosol (ERα)
T1 construct: Receptor containing cytosol was prepared from rat prostate (ERβ containing cytosol); from tissue; host or cells: rat prostate cytosol
Method: The binding affinity of 8β-Vinyl-estra-1,3,5(10)-trien-3,17β-diol and 17β-Fluor-9α-vinyl-estra-1,3,5(10)-trien-3,16α-diol was determined by competition experiments using [3H]-estradiol as a ligand. Receptor containing cytosol was prepared from rat prostate (ERβ containing cytosol) and rat uterus (ERα containing cytosol).
The preparation of rat uterus cytosol and the binding study were performed as described (Stack, Gorski 1985, Endocrinology 117, 2024-2032) with some modifications as described by Fuhrmann et al. (Fuhrmann U. et al. 1995, Contraception 51: 45-52).
The preparation of rat prostate cytosol and the binding study was performed as described (Testas J. et al., 1981, Endocrinology 109: 1287-1289).

human ERβ = molecular target: T2, human ERβ (Homo sapiens, UniProt Q92731); test: Binding to human estrogen receptors expressed by the Baculovirus/SF-9-expression system; conditions: human receptors expressed by Baculovirus/SF-9-expression system
T2 construct: host or cells: Baculovirus/SF-9 expression system

[2] = test system: uterus (indicator of classical ERα-mediated estrogen action); test: Uterus fresh weight in ovariectomized SHR; type: in vivo, rat; conditions: ovx SHR, daily sc injection for 4 weeks; 30 μg/kg/d (estradiol 2 μg/kg/d); FIG. 1
Description: (§1) The effects of the ERβ-agonists on blood pressure (BP) in ovariectomized SHR, a widely accepted animal model of hypertensive heart disease, were investigated in three independent studies. Estradiol and the steroidal ERα agonist 3,17β-Dihydroxy-19-nor-17α-pregna-1,3,5(10)-triene-21,16α-lactone were used as references. Female spontaneously hypertensive rats (SHR-Nico; 12 weeks old; Charles River Laboratories) were used for the experiment. All animals were kept under standard conditions (eg 12 hr ON/OFF light cycle, commercial diet and water ad libitum). Animals were randomly assigned to different treatment groups as outlined below. All animals were marked individually by ear tag. Female rats (SHR; 12 weeks old) were ovarectomized (ovx) and treated for 4 weeks starting one day after ovx according to the protocol outlined below. All compounds were injected daily using ethanol (EtOH)/peanut oil 4+1 as the vehicle. [table] 12 weeks old female SHR (Charles River™) were ovariectomized or sham-operated. […] After 4 weeks treatment hemodynamic parameters were measured as described previously (Fraccarollo D, Hu K, Galuppo P, Gaudron P, Ertl G. (1997), Circulation. 1997;96:3963-3973) and animals were euthanized. Uterus fresh weight was measured as an indicator of classical ERα-mediated estrogen action.

[3] = Body weight of ovariectomized SHR; type: in vivo, rat; conditions: daily sc injection for 4 weeks, 30 μg/kg/d (estradiol 2 μg/kg/d), FIG. 2
Description: as §1, with “euthanized.” for “euthanized. Uterus fresh weight was measured as an indicator of classical ERα-mediated estrogen action.”

[4] = test system: spontaneously hypertensive rats (SHR); test: In vivo hemodynamics in ovariectomized spontaneously hypertensive rats (SHR); design: species or system rat; conditions: for cardiac output: FIG. 4; for blood pressure / effectiveness in lowering blood pressure relative to estradiol and the ERα agonist: ovx SHR, FIG. 3; for blood pressure: compared to vehicle treated (placebo) animals; for effectiveness in lowering blood pressure relative to estradiol and the ERα agonist: 30 μg/kg/d vs estradiol 2 μg/kg/d and ERα agonist 30 μg/kg/d
Description: The effects of the ERβ-agonists on blood pressure (BP) in ovariectomized SHR, a widely accepted animal model of hypertensive heart disease, were investigated in three independent studies. Estradiol and the steroidal ERα agonist 3,17β-Dihydroxy-19-nor-17α-pregna-1,3,5(10)-triene-21,16α-lactone were used as references. Female spontaneously hypertensive rats (SHR-Nico; 12 weeks old; Charles River Laboratories) were used for the experiment. All animals were kept under standard conditions (eg 12 hr ON/OFF light cycle, commercial diet and water ad libitum). Animals were randomly assigned to different treatment groups as outlined below. All animals were marked individually by ear tag. Female rats (SHR; 12 weeks old) were ovarectomized (ovx) and treated for 4 weeks starting one day after ovx according to the protocol outlined below. All compounds were injected daily using ethanol (EtOH)/peanut oil 4+1 as the vehicle. [table] 12 weeks old female SHR (Charles River™) were ovariectomized or sham-operated. Starting one day after ovariectomy animals were randomly selected for a daily subcutaneous injection of 17β-estradiol (E2, 2 μg/kg body weight/d), the selective ERα agonist 3,17β-Dihydroxy-19-nor-17α-pregna-1,3,5(10)-triene-21,16α-lactone (WO 02/26763) (30 μg/kg body weight/d), the selective ERβ agonist 8β-Vinyl-estra-1,3,5(10)-trien-3,17β-diol (or 17β-Fluor-9α-vinyl-estra-1,3,5(10)-trien-3,16α-diol, respectively 30 μg/kg body weight) or placebo. All animals had free access to standard rat chow and water. E2, 3,17β-Dihydroxy-19-nor-17α-pregna-1,3,5(10)-triene-21,16α-lactone and 8β-Vinyl-estra-1,3,5(10)-trien-3,17β-diol (or 17β-Fluor-9α-vinyl-estra-1,3,5(10)-trien-3,16α-diol) were dissolved in ethanol and injected daily using peanut oil as a carrier substance, placebo animals received ethanol/peanut oil alone. After 4 weeks treatment hemodynamic parameters were measured as described previously (Fraccarollo D, Hu K, Galuppo P, Gaudron P, Ertl G. (1997), Circulation. 1997;96:3963-3973) and animals were euthanized. The following parameters were determined: Systolic, diastolic, mean blood pressure; left ventricular ejection fraction; systolic and diastolic left ventricular pressure as well as the velocity of pressure increase and decrease in the left ventricle; cardiac output, cardiac index, heart rate; systemic vascular resistance. All measurements were performed at rest under isofluran anesthesia. Values are expressed as mean±SEM of parameters from different animals. Statistical analysis was performed by one-way analysis of variance (ANOVA) followed by a post hoc Bonferroni test. P values <0.05 were considered statistically significant.

[5] = test system: spontaneously hypertensive rats (SHR); test: Cardiac hypertrophy (heart weight) in ovariectomized SHR; type: in vivo, rat; conditions: ovx SHR, 4 weeks daily sc; 30 μg/kg/d (estradiol 2 μg/kg/d), compared to placebo treated rats; FIG. 6
Description: as §1, with “[table]” for “[table] 12 weeks old female SHR (Charles River™) were ovariectomized or sham-operated.”, “Cardiac hypertrophy in all animals was determined by measuring total heart” for “Uterus fresh”, “and subsequent normalization to tibia length. Values are expressed” for “was measured”, “mean±SEM” for “an indicator”, “parameters from different animals. […]” for “classical ERα-mediated estrogen action.”

[6] = ovx (estradiol-deficient) SHR, 30 μg/kg/d sc for 4 weeks

T1 sequence (Q62986 whole entry): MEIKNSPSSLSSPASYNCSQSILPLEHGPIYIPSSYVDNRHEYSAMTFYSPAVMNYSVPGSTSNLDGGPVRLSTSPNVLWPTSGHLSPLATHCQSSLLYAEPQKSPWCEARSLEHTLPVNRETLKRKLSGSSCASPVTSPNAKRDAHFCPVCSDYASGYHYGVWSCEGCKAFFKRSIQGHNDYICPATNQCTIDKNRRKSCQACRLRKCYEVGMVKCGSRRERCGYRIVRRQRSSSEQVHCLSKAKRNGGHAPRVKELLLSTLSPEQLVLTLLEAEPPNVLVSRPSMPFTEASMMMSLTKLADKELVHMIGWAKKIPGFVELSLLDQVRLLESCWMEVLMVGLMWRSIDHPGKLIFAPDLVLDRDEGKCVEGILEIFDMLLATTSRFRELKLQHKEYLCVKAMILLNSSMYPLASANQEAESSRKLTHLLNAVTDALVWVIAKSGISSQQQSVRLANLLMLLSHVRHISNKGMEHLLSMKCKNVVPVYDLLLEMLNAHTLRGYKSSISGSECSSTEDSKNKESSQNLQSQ
T2 sequence (Q92731 whole entry): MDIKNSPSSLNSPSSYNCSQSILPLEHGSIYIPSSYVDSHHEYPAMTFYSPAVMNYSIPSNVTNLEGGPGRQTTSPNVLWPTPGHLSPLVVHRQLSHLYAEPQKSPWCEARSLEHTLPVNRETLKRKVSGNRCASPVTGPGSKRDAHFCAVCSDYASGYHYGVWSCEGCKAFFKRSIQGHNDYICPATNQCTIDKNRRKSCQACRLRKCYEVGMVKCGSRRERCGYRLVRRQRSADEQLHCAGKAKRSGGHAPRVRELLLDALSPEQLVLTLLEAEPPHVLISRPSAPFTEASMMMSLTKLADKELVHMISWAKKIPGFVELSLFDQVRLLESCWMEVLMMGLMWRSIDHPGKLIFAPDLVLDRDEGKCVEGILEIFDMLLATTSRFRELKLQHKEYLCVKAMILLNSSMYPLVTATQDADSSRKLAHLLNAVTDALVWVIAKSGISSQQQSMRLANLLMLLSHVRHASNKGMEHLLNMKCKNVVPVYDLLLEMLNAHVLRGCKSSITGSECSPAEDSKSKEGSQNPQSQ

| SMILES | binding affinity to rat prostate estrogen receptor compared to rat uterus estrogen receptor [1] | affinity to human ERβ compared to ERα (human ERβ) | stimulation of uterine growth (uterine weight) [2] | effect on ovx-induced adipose phenotype (body weight) [3] | cardiac index [4, 6] | cardiac output [4, 6] | left-ventricular stroke volume ([4]; ovx (estradiol-deficient) SHR, 30 μg/kg/d sc for 4 weeks, FIG. 5) | blood pressure ([4]; 30 μg/kg/d sc for 4 weeks) | effectiveness in lowering blood pressure relative to estradiol and the ERα agonist [4] | cardiac hypertrophy (heart weight) [5] |
| --- | --- | --- | --- | --- | --- | --- | --- | --- | --- | --- |
| C=C[C@@]12CCc3cc(O)ccc3[C@H]1CC[C@@]1(C)[C@H]2CC[C@@H]1O [8β-Vinyl-estra-1,3,5(10)-trien-3,17β-diol] | higher binding affinity to the rat prostate compared to rat uterus estrogen receptor | higher affinity to human ERβ compared to ERα | did neither cause stimulation of uterine growth | nor affect the ovx-induced adipose phenotype | augmented | significant improvement of cardiac output; also recorded: increase cardiac output; also recorded: augmented | augmented | significant reduction of systolic as well as diastolic blood pressure; also recorded: lower systolic, mean and diastolic blood pressure; also recorded: lowered blood pressure levels | more effective | significantly inhibited; also recorded: prevent the development of cardiac hypertrophy; also recorded: inhibitory effect on cardiac hyperthrophy as indicated by a reduction in heart weight |
| C=C[C@]12CC[C@]3(C)[C@@H](F)[C@H](O)C[C@H]3[C@@H]1CCc1cc(O)ccc12 [17β-Fluor-9α-vinyl-estra-1,3,5(10)-trien-3,16α-diol] | higher binding affinity to the rat prostate compared to rat uterus estrogen receptor | higher affinity to human ERβ compared to ERα | – | – | – | significant improvement of cardiac output; also recorded: increase cardiac output | – | significant reduction of systolic as well as diastolic blood pressure; also recorded: lower systolic, mean and diastolic blood pressure | more effective | significantly inhibited; also recorded: prevent the development of cardiac hypertrophy |
